ChEMBL document CHEMBL1156278, “Novel benzothiophene H1-antihistamines for the treatment of insomnia” (Bioorg Med Chem Lett, 2010)
The source made the active and inactive calls. The rule behind the calls is not given here.

How the values were obtained:
Cytochrome P450 3A4 = Cytochrome P450 3A4 (Homo sapiens, UniProt P08684); experiment: Inhibition of recombinant CYP3A4 after 30 mins by fluorescence assay
[1] = biological target: T1, Muscarinic acetylcholine receptor M1 (Homo sapiens, UniProt P11229); experiment: Displacement of [3H]N-methylscopolamine from human muscarinic M1 receptor expressed in CHO Flp-In cells after 90 mins by scintillation counting; assay type: cell-based
T1 sequence (P11229 whole entry): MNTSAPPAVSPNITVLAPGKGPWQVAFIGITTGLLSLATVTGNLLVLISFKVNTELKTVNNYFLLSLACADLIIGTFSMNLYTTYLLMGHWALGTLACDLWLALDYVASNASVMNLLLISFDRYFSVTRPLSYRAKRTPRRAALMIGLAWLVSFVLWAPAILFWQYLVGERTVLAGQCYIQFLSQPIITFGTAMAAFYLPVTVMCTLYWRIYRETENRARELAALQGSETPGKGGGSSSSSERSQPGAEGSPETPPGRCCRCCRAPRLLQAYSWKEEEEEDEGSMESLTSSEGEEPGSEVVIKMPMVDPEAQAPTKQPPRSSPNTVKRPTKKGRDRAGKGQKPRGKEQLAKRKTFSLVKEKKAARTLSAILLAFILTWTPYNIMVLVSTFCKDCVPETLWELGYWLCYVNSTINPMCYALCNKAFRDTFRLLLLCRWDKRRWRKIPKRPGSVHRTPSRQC

Histamine H1 receptor = Histamine H1 receptor (Homo sapiens, UniProt P35367); experiment: Displacement of [3H]pyrilamine from human histamine H1 receptor expressed in CHO Flp-In cells after 90 mins by scintillation counting; assay type: cell-based
Chain of Histamine H1 receptor (P35367 whole entry): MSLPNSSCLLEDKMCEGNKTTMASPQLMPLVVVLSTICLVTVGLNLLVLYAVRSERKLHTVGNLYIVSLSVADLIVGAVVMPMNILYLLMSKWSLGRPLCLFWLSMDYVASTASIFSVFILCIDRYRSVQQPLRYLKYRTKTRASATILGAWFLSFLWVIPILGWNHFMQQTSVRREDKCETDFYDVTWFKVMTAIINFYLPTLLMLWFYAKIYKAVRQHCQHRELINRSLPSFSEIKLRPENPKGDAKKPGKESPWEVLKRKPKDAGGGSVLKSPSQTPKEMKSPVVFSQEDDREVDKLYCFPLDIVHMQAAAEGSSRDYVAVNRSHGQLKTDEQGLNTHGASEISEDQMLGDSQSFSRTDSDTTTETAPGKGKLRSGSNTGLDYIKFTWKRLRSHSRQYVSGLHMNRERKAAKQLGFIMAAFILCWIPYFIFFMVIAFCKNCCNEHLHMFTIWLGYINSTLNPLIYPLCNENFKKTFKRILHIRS

Cytochrome P450 2D6 = Cytochrome P450 2D6 (Homo sapiens, UniProt P10635); experiment: Inhibition of recombinant CYP2D6 after 30 mins by fluorescence assay
Chain of Cytochrome P450 2D6 (P10635 whole entry): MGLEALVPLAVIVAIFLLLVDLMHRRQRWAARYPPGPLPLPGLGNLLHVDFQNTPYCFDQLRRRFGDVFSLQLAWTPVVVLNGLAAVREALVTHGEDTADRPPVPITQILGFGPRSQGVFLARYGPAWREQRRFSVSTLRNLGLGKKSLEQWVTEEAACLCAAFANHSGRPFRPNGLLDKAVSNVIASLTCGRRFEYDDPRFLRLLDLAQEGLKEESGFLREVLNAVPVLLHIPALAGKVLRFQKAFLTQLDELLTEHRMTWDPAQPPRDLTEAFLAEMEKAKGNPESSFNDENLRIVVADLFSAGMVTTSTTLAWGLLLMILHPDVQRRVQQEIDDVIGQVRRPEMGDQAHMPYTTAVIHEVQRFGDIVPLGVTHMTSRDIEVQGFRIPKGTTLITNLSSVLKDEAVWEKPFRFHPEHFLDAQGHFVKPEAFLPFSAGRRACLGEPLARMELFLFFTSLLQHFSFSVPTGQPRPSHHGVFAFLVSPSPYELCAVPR

[2] = biological target: T2, Voltage-gated inwardly rectifying potassium channel KCNH2 (Homo sapiens, UniProt Q12809); experiment: Displacement of [3H]Dofetilide from human ERG
T2 sequence (Q12809 whole entry): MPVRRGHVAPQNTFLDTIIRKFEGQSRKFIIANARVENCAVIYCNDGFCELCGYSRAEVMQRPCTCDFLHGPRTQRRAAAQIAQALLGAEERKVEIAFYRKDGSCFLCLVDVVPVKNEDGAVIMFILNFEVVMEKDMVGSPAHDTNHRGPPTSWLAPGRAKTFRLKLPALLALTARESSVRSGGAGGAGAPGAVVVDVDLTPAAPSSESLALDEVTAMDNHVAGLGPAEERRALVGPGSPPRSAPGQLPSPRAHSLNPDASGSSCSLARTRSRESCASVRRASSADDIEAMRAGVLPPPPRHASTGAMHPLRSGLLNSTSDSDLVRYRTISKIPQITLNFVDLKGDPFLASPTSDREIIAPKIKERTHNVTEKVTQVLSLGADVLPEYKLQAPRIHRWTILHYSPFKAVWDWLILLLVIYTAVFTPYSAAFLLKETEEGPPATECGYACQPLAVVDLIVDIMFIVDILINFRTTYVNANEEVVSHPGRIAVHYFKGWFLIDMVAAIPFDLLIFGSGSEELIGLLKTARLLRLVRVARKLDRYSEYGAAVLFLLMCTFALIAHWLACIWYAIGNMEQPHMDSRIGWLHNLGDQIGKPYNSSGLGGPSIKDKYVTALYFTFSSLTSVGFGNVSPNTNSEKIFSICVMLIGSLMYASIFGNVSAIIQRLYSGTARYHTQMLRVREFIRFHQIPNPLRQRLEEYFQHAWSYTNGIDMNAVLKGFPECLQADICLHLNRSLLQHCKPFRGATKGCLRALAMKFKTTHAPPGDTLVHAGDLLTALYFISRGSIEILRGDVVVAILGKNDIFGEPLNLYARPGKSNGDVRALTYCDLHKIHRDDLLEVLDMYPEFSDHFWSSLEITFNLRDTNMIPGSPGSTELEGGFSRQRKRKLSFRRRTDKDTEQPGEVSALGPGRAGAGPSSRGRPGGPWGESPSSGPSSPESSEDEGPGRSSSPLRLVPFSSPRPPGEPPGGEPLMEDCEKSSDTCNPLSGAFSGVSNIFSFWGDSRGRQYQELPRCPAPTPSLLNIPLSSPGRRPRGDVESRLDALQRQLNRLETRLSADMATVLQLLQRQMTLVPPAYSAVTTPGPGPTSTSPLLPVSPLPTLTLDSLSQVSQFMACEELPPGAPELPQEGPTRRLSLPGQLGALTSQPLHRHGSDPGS

Caco-2 = experiment: Ratio of permeability from apical to basolateral side over basolateral to apical side in human Caco-2 cells
[3] = Activity at P-glycoprotein
[4] = Drug level in rat brain at 30 mg/kg, po after 4 hrs; assay type: ADME, organism-based; design: dose 30 mg/kg, route oral; conditions: read-out: Drug uptake
[5] = Ratio of drug level in rat brain to plasma at 30 mg/kg, po after 4 hrs; assay type: ADME, organism-based; design: dose 30 mg/kg, route oral; conditions: read-out: Ratio
[6] = Apparent permeability across human Caco-2 cells; assay type: ADME, cell-based
[7] = Drug level in rat plasma at 30 mg/kg, po after 4 hrs; assay type: ADME, organism-based; design: dose 30 mg/kg, route oral
[8] = AUC (0 to t) in human at 0.1 mg/kg, po by microdose study; assay type: ADME, organism-based; design: dose 0.1 mg/kg, route oral; conditions: plasma
[9] = Half life in human at 0.1 mg/kg by microdose study; assay type: ADME, organism-based; design: dose 0.1 mg/kg; conditions: in vivo
[10] = biological target: T2, Voltage-gated inwardly rectifying potassium channel KCNH2; experiment: Inhibition of human ERG expressed in HEK cells assessed as blockade of potassium tail current by standard patch clamp analysis
[11] = Bioavailability in human at 0.1 mg/kg by microdose study; assay type: ADME, organism-based; conditions: in vivo
[12] = Systemic clearance in human at 0.1 mg/kg, iv by microdose study; assay type: ADME, organism-based; design: dose 0.1 mg/kg, route intravenous; conditions: in vivo
Rattus norvegicus [13] = experiment: Effect on sleep-awake pattern in CD IGS rat model of insomnia assessed as latency to REM sleep at 60 mg/kg, po by EEG/EMG study relative to control; assay type: functional
Rattus norvegicus [14] = experiment: Effect on sleep-awake pattern in CD IGS rat model of insomnia assessed as latency to NREM sleep at 30 mg/kg, po by EEG/EMG study relative to control; assay type: functional
Rattus norvegicus [15] = experiment: Increase in REM sleep in CD IGS rat model of insomnia at 60 mg/kg, po after 4 hrs by EEG/EMG study relative to control; assay type: functional
Rattus norvegicus [16] = experiment: Effect on sleep-awake pattern in CD IGS rat model of insomnia assessed as latency to REM sleep at 30 mg/kg, po by EEG/EMG study relative to control; assay type: functional
Rattus norvegicus [17] = experiment: Effect on sleep-awake pattern in CD IGS rat model of insomnia assessed as longest 3 NREM bouts at 30 mg/kg, po after 6 hrs by EEG/EMG study relative to control; assay type: functional
Rattus norvegicus [18] = experiment: Increase in REM sleep in CD IGS rat model of insomnia at 30 mg/kg, po after 4 hrs by EEG/EMG study relative to control; assay type: functional
[19] = Volume of distribution at steady state in human at 0.1 mg/kg by microdose study; assay type: ADME, organism-based; design: dose 0.1 mg/kg; conditions: in vivo, read-out: Vdss
Rattus norvegicus [20] = experiment: Effect on sleep-awake pattern in CD IGS rat model of insomnia assessed as latency to NREM sleep at 60 mg/kg, po by EEG/EMG study relative to control; assay type: functional
Rattus norvegicus [21] = experiment: Effect on sleep-awake pattern in CD IGS rat model of insomnia assessed as longest 3 REM bouts at 30 mg/kg, po after 6 hrs by EEG/EMG study relative to control; assay type: functional
Rattus norvegicus [22] = experiment: Increase in NREM sleep in CD IGS rat model of insomnia at 60 mg/kg, po after 4 hrs by EEG/EMG study relative to control; assay type: functional
Rattus norvegicus [23] = experiment: Effect on sleep-awake pattern in CD IGS rat model of insomnia assessed as longest 3 NREM bouts at 60 mg/kg, po after 6 hrs by EEG/EMG study relative to control; assay type: functional
Rattus norvegicus [24] = experiment: Increase in NREM sleep in CD IGS rat model of insomnia at 30 mg/kg, po after 4 hrs by EEG/EMG study relative to control; assay type: functional
Rattus norvegicus [25] = experiment: Effect on sleep-awake pattern in CD IGS rat model of insomnia assessed as longest 3 REM bouts at 60 mg/kg, po after 6 hrs by EEG/EMG study relative to control; assay type: functional

Chain of Cytochrome P450 3A4 (P08684 whole entry): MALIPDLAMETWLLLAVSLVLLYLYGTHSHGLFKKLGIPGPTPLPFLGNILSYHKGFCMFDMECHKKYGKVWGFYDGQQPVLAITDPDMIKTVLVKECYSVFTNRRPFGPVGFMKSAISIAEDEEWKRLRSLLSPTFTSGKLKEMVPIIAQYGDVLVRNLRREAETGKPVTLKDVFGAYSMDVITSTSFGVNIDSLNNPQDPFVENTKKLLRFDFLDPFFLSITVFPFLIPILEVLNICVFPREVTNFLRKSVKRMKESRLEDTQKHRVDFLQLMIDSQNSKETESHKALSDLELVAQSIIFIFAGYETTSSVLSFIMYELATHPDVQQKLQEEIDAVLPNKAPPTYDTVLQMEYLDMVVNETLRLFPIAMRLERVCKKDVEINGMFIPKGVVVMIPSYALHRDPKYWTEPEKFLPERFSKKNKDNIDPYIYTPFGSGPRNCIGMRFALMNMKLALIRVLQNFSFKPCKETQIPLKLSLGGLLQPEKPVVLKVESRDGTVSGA

C[C@@H](c1ncccc1Cl)c1c(CCN(C)C)sc2ccccc12
IC50 (Cytochrome P450 3A4): > 10 µM | Ki ([1]; read-out: Ki): > 10 µM | Ki (Histamine H1 receptor; read-out: Ki): 8 nM | IC50 (Cytochrome P450 2D6): 1.5 µM | Ki [2]: > 5 µM

C[C@@H](c1ccccn1)c1c(CCN(C)C)sc2ccccc12
IC50 (Cytochrome P450 3A4): > 10 µM | Ratio (Caco-2): > 0.7 | Activity [3]: inactive | Ki [1]: 5.3 µM | concentration at 4 h [4]: 23 ng/g | Kp at 4 h [5]: 8 | Papp [6]: > 21.7 ×10⁻⁶ cm/s | concentration at 4 h [7]: 2.8 ng/mL | AUC(0-t) [8]: 2.78 ng·h/mL | Ki (Histamine H1 receptor; read-out: Ki): 4 nM | half-life [9]: 408 min | IC50 [10]: 1400 nM | Ki [2]: > 5 µM | bioavailability [11]: 47% | clearance [12]: 6.2 mL/min/kg

COc1ccc(C(C)c2c(CCN(C)C)sc3ccccc23)cn1 (racemic)
IC50 (Cytochrome P450 3A4): > 10 µM | Ki ([1]; read-out: Ki): > 10 µM | Ki (Histamine H1 receptor; read-out: Ki): 120 nM | Ki [2]: > 5 µM

COc1cccnc1[C@H](C)c1c(CCN(C)C)sc2ccccc12
IC50 (Cytochrome P450 3A4): > 10 µM | Ki ([1]; read-out: Ki): > 10 µM | Ki (Histamine H1 receptor; read-out: Ki): 5 nM | IC50 (Cytochrome P450 2D6): 9.5 µM | IC50 [10]: 3000 nM | Ki [2]: > 5 µM

C[C@@H](c1ncccc1F)c1c(CCN(C)C)sc2ccccc12
IC50 (Cytochrome P450 3A4): > 10 µM | Ki ([1]; read-out: Ki): 2.2 µM | Ki (Histamine H1 receptor; read-out: Ki): 2.7 nM | IC50 (Cytochrome P450 2D6): 4 µM | IC50 [10]: 330 nM | Ki [2]: > 5 µM

C[C@@H](c1cscn1)c1c(CCN(C)C)sc2ccccc12
IC50 (Cytochrome P450 3A4): > 10 µM | Ki ([1]; read-out: Ki): 4.76 µM | Ki (Histamine H1 receptor; read-out: Ki): 4.6 nM

C[C@@H](c1ccc(F)cn1)c1c(CCN(C)C)sc2ccccc12
IC50 (Cytochrome P450 3A4): > 10 µM | Ki ([1]; read-out: Ki): > 10 µM | Ki (Histamine H1 receptor; read-out: Ki): 13 nM | IC50 (Cytochrome P450 2D6): > 10 µM | IC50 [10]: 240 nM | Ki [2]: 2.5 µM

CC(c1ccncc1)c1c(CCN(C)C)sc2ccccc12 (racemic)
IC50 (Cytochrome P450 3A4): 2.8 µM | Ki ([1]; read-out: Ki): 5.6 µM | Ki (Histamine H1 receptor): 23 nM | IC50 (Cytochrome P450 2D6): 0.85 µM | Ki [2]: 1.8 µM

Cc1ccnc(C(C)c2c(CCN(C)C)sc3ccccc23)c1 (racemic)
IC50 (Cytochrome P450 3A4): > 10 µM | Ki ([1]; read-out: Ki): > 10 µM | Ki (Histamine H1 receptor; read-out: Ki): 390 nM | Ki [2]: > 5 µM

Cc1ncccc1[C@@H](C)c1c(CCN(C)C)sc2ccccc12
IC50 (Cytochrome P450 3A4): > 10 µM | Ki ([1]; read-out: Ki): > 10 µM | Ki (Histamine H1 receptor; read-out: Ki): 17 nM | IC50 (Cytochrome P450 2D6): > 10 µM | Ki [2]: > 5 µM

C[C@H](c1cccnc1F)c1c(CCN(C)C)sc2ccccc12
Activity (Rattus norvegicus [13]): 64 min | Activity (Rattus norvegicus [14]): 33 min | Activity (Rattus norvegicus [15]): 6.6% | Activity [3]: inactive | Ki ([1]; read-out: Ki): > 10 µM | Activity (Rattus norvegicus [16]): 49 min | concentration at 4 h [4]: 83 ng/g | Kp at 4 h [5]: 26 | Papp [6]: > 21.7 ×10⁻⁶ cm/s | Activity (Rattus norvegicus [17]): 5.8 min | concentration at 4 h [7]: 3 ng/mL | Activity (Rattus norvegicus [18]): 6.4% | Vd [19]: 5.6 L/kg | AUC(0-t) [8]: 0.64 ng·h/mL | Activity (Rattus norvegicus [20]): 45 min | Ki (Histamine H1 receptor; read-out: Ki): 1.7 nM | half-life [9]: 780 min | Activity (Rattus norvegicus [21]): 2.1 min | Activity (Rattus norvegicus [22]): 32% | Activity (Rattus norvegicus [23]): 6.7 min | Activity (Rattus norvegicus [24]): 27.4% | Activity (Rattus norvegicus [25]): 2.2 min | bioavailability [11]: 23% | clearance [12]: 12.1 mL/min/kg

C[C@H](c1ccccn1)c1c(CCN(C)C)sc2ccccc12
IC50 (Cytochrome P450 3A4): > 10 µM | Ki ([1]; read-out: Ki): 0.99 µM | Ki (Histamine H1 receptor): 256 nM | IC50 (Cytochrome P450 2D6): 3.3 µM | Ki [2]: > 5 µM

C[C@@H](c1ccccn1)c1c(CCN2CCC2)sc2ccccc12
IC50 (Cytochrome P450 3A4): > 10 µM | Ki ([1]; read-out: Ki): > 10 µM | Ki (Histamine H1 receptor; read-out: Ki): 3.9 nM | IC50 (Cytochrome P450 2D6): > 10 µM | IC50 [10]: 730 nM | Ki [2]: 4.2 µM

C[C@@H](c1cncs1)c1c(CCN(C)C)sc2ccccc12
IC50 (Cytochrome P450 3A4): > 10 µM | Ki ([1]; read-out: Ki): > 10 µM | Ki (Histamine H1 receptor; read-out: Ki): 5.2 nM | Ki [2]: > 5 µM
